# Results reported in PubChem BioAssay (NCI).
#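 Growth conditions: 96-well plates. Treatment: test compound, 48 hours, 5 concentrations. Analysis: linear interpolation between bracketing concentrations; unreached endpoints set to highest concentration. The concentration for full growth arrest is given as TGI.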
# Tests used:
# Assay in all cases: DTP human tumour cell line panel, 48 h
# 786-0 renal = test system: 786-0 renal
# A498 renal = test system: A498 renal
# A549 NSCLC = test system: A549 NSCLC
# ACHN renal = test system: ACHN renal
# BT-549 breast = test system: BT-549 breast
# CAKI-1 renal = test system: CAKI-1 renal
# CCRF-CEM leukemia = test system: CCRF-CEM leukemia
# COLO 205 colon = test system: COLO 205 colon
# DU-145 prostate = test system: DU-145 prostate
# EKVX NSCLC = test system: EKVX NSCLC
# HCC-2998 colon = test system: HCC-2998 colon
# HCT-116 colon = test system: HCT-116 colon
# HCT-15 colon = test system: HCT-15 colon
# HL-60(TB) leukemia = test system: HL-60(TB) leukemia
# HOP-62 NSCLC = test system: HOP-62 NSCLC
# HOP-92 NSCLC = test system: HOP-92 NSCLC
# HS 578T breast = test system: HS 578T breast
# HT29 colon = test system: HT29 colon
# IGROV1 ovarian = test system: IGROV1 ovarian
# K-562 leukemia = test system: K-562 leukemia
# KM12 colon = test system: KM12 colon
# M14 melanoma = test system: M14 melanoma
# MALME-3M melanoma = test system: MALME-3M melanoma
# MCF7 breast = test system: MCF7 breast
# MDA-MB-231 breast = test system: MDA-MB-231 breast
# MDA-MB-435 = test system: MDA-MB-435
# MDA-N = test system: MDA-N
# MOLT-4 leukemia = test system: MOLT-4 leukemia
# NCI-H226 lung = test system: NCI-H226 lung
# NCI-H23 lung = test system: NCI-H23 lung
# NCI-H460 lung = test system: NCI-H460 lung
# NCI-H522 lung = test system: NCI-H522 lung
# NCI/ADR-RES ovarian = test system: NCI/ADR-RES ovarian
# OVCAR-3 ovarian = test system: OVCAR-3 ovarian
# OVCAR-4 ovarian = test system: OVCAR-4 ovarian
# OVCAR-5 ovarian = test system: OVCAR-5 ovarian
# OVCAR-8 ovarian = test system: OVCAR-8 ovarian
# PC-3 prostate = test system: PC-3 prostate
# RPMI-8226 leukemia = test system: RPMI-8226 leukemia
# RXF 393 renal = test system: RXF 393 renal
# SF-268 CNS = test system: SF-268 CNS
# SF-295 CNS = test system: SF-295 CNS
# SF-539 CNS = test system: SF-539 CNS
# SK-MEL-2 melanoma = test system: SK-MEL-2 melanoma
# SK-MEL-28 melanoma = test system: SK-MEL-28 melanoma
# SK-MEL-5 melanoma = test system: SK-MEL-5 melanoma
# SK-OV-3 ovarian = test system: SK-OV-3 ovarian
# SN12C renal = test system: SN12C renal
# SNB-19 CNS = test system: SNB-19 CNS
# SNB-75 CNS = test system: SNB-75 CNS
# SR leukemia = test system: SR leukemia
# SW-620 colon = test system: SW-620 colon
# T-47D breast = test system: T-47D breast
# TK-10 renal = test system: TK-10 renal
# U251 CNS = test system: U251 CNS
# UACC-257 melanoma = test system: UACC-257 melanoma
# UACC-62 melanoma = test system: UACC-62 melanoma
# UO-31 renal = test system: UO-31 renal
# LOX IMVI melanoma = test system: LOX IMVI melanoma
smiles,measurement,setting,value
COc1cc(C)cc2c(-c3c(O)cc(O)c4c3C[C@H](C)N[C@H]4C)cc(-c3cc(-c4c(O)cc(O)c5c4C[C@H](C)N[C@H]5C)c4cc(C)cc(OC)c4c3O)c(O)c12,TGI,786-0 renal,> 100 µM
same,TGI,A498 renal,> 100 µM
same,TGI,A549 NSCLC,> 100 µM
same,TGI,ACHN renal,> 100 µM
same,TGI,BT-549 breast,> 100 µM
same,TGI,CAKI-1 renal,> 100 µM
same,TGI,CCRF-CEM leukemia,> 100 µM
same,TGI,COLO 205 colon,> 100 µM
same,TGI,DU-145 prostate,> 100 µM
same,TGI,EKVX NSCLC,> 100 µM
same,TGI,HCC-2998 colon,> 100 µM
same,TGI,HCT-116 colon,> 100 µM
same,TGI,HCT-15 colon,> 100 µM
same,TGI,HL-60(TB) leukemia,> 100 µM
same,TGI,HOP-62 NSCLC,> 100 µM
same,TGI,HOP-92 NSCLC,> 100 µM
same,TGI,HS 578T breast,> 100 µM
same,TGI,HT29 colon,> 100 µM
same,TGI,IGROV1 ovarian,> 100 µM
same,TGI,K-562 leukemia,> 100 µM
same,TGI,KM12 colon,> 100 µM
same,TGI,M14 melanoma,> 100 µM
same,TGI,MALME-3M melanoma,> 100 µM
same,TGI,MCF7 breast,> 100 µM
same,TGI,MDA-MB-231 breast,> 100 µM
same,TGI,MDA-MB-435,> 100 µM
same,TGI,MDA-N,> 100 µM
same,TGI,MOLT-4 leukemia,> 100 µM
same,TGI,NCI-H226 lung,> 100 µM
same,TGI,NCI-H23 lung,> 100 µM
same,TGI,NCI-H460 lung,> 100 µM
same,TGI,NCI-H522 lung,> 100 µM
same,TGI,NCI/ADR-RES ovarian,> 100 µM
same,TGI,OVCAR-3 ovarian,> 100 µM
same,TGI,OVCAR-4 ovarian,> 100 µM
same,TGI,OVCAR-5 ovarian,> 100 µM
same,TGI,OVCAR-8 ovarian,> 100 µM
same,TGI,PC-3 prostate,> 100 µM
same,TGI,RPMI-8226 leukemia,> 100 µM
same,TGI,RXF 393 renal,> 100 µM
same,TGI,SF-268 CNS,> 100 µM
same,TGI,SF-295 CNS,> 100 µM
same,TGI,SF-539 CNS,> 100 µM
same,TGI,SK-MEL-2 melanoma,> 100 µM
same,TGI,SK-MEL-28 melanoma,> 100 µM
same,TGI,SK-MEL-5 melanoma,> 100 µM
same,TGI,SK-OV-3 ovarian,> 100 µM
same,TGI,SN12C renal,> 100 µM
same,TGI,SNB-19 CNS,> 100 µM
same,TGI,SNB-75 CNS,> 100 µM
same,TGI,SR leukemia,> 100 µM
same,TGI,SW-620 colon,> 100 µM
same,TGI,T-47D breast,> 100 µM
same,TGI,TK-10 renal,> 100 µM
same,TGI,U251 CNS,> 100 µM
same,TGI,UACC-257 melanoma,> 100 µM
same,TGI,UACC-62 melanoma,> 100 µM
same,TGI,UO-31 renal,> 100 µM
COC(=O)c1cc(C)ccc1/C=C1\Cc2c(C)cc(C)cc2C1=O,TGI,786-0 renal,40.6 µM
same,TGI,A498 renal,76.4 µM
same,TGI,A549 NSCLC,> 100 µM
same,TGI,ACHN renal,> 100 µM
same,TGI,BT-549 breast,> 75.7 µM
same,TGI,CAKI-1 renal,> 89.1 µM
same,TGI,CCRF-CEM leukemia,> 100 µM
same,TGI,COLO 205 colon,> 100 µM
same,TGI,DU-145 prostate,> 100 µM
same,TGI,EKVX NSCLC,> 88.4 µM
same,TGI,HCC-2998 colon,> 100 µM
same,TGI,HCT-116 colon,> 100 µM
same,TGI,HCT-15 colon,> 100 µM
same,TGI,HL-60(TB) leukemia,> 100 µM
same,TGI,HOP-62 NSCLC,32.4 µM
same,TGI,HOP-92 NSCLC,25.2 µM
same,TGI,HS 578T breast,42.9 µM
same,TGI,HT29 colon,> 100 µM
same,TGI,IGROV1 ovarian,> 100 µM
same,TGI,K-562 leukemia,> 100 µM
same,TGI,KM12 colon,> 100 µM
same,TGI,LOX IMVI melanoma,> 100 µM
same,TGI,M14 melanoma,> 100 µM
same,TGI,MALME-3M melanoma,> 100 µM
same,TGI,MCF7 breast,> 100 µM
same,TGI,MDA-MB-231 breast,> 58.4 µM
same,TGI,MDA-MB-435,> 100 µM
same,TGI,MDA-N,> 100 µM
same,TGI,MOLT-4 leukemia,> 100 µM
same,TGI,NCI-H226 lung,> 82.7 µM
same,TGI,NCI-H23 lung,> 72.3 µM
same,TGI,NCI-H460 lung,> 100 µM
same,TGI,NCI-H522 lung,> 100 µM
same,TGI,NCI/ADR-RES ovarian,> 100 µM
same,TGI,OVCAR-3 ovarian,> 100 µM
same,TGI,OVCAR-4 ovarian,> 100 µM
same,TGI,OVCAR-5 ovarian,> 100 µM
same,TGI,OVCAR-8 ovarian,> 100 µM
same,TGI,PC-3 prostate,> 100 µM
same,TGI,RPMI-8226 leukemia,> 100 µM
same,TGI,RXF 393 renal,44.5 µM
same,TGI,SF-268 CNS,37.1 µM
same,TGI,SF-295 CNS,33.1 µM
same,TGI,SF-539 CNS,42.3 µM
same,TGI,SK-MEL-2 melanoma,63.7 µM
same,TGI,SK-MEL-28 melanoma,> 100 µM
same,TGI,SK-MEL-5 melanoma,> 100 µM
same,TGI,SN12C renal,> 100 µM
same,TGI,SNB-19 CNS,52.8 µM
same,TGI,SNB-75 CNS,35.5 µM
same,TGI,SR leukemia,> 100 µM
same,TGI,SW-620 colon,> 100 µM
same,TGI,T-47D breast,> 100 µM
same,TGI,TK-10 renal,40 µM
same,TGI,U251 CNS,42.9 µM
same,TGI,UACC-257 melanoma,> 30.1 µM
same,TGI,UACC-62 melanoma,65.1 µM
same,TGI,UO-31 renal,> 85.8 µM
